Patent US10947210B2 (priority 2015, dated 2021)
pEC50, pIC50: −log10 of the molar value. Where two headings read alike, the source gives them in different places.

What was measured:
[1] = target: HCV RNA-dependent RNA polymerase (NS5B) (Hepatitis C virus genotype 1b (isolate BK) (HCV), UniProt P26663); assay: RNA-Dependent RNA HCV NS5B (polymerase) Assay and IC50 Determination; type: biochemical; conditions: purified HCV NS5B polymerase, polyA:U16 substrate, 32P-UTP incorporation; for pIC50: read-out: IC50
Sequence of HCV RNA-dependent RNA polymerase (NS5B) (P26663 2420-3010): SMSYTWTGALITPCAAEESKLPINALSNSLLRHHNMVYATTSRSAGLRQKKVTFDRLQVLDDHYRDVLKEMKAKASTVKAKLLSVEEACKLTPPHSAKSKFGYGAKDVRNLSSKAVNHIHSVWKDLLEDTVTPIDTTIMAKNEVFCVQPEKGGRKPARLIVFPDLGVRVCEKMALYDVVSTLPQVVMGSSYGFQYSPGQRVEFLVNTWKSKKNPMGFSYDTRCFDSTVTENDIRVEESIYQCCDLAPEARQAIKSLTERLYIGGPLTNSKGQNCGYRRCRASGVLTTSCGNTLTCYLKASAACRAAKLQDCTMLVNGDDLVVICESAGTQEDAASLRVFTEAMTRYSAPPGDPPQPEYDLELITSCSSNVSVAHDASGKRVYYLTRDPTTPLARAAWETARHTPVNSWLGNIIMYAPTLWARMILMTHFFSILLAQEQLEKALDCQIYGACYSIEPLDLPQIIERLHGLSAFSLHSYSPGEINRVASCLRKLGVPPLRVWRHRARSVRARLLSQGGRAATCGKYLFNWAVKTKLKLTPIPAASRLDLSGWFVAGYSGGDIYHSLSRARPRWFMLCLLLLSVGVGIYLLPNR
Outline: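 Purified NS5B was incubated with 0.5 uM polyA:U16, 10 μM UTP plus ^32P-UTP in 50 mM Hepes-KOH pH 7.5, 5 mM MgCl2, 5 mM DTT, 2% glycerol and 0.01% Triton X-100. Inhibitor reactions ran 60 min at 37° C, and radiolabelled RNA product was quantified after filter capture. IC50 values were obtained from concentration series.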

[2] = tested on: HCV subgenomic RNA replicon in Huh-luc/neo-ET cells; assay: HCV Replicon Assay and EC50 Determination; type: cell-based; conditions: Hepatitis C virus, 72 hours, luciferase reporter activity
Experimental: HCV Replicon Assay and EC50 Determination.
HCV replicon assay is based on the luciferase reporter cell line (Huh-luc/neo-ET). This reporter cell line is a human liver carcinoma cell line (Huh-7) stably transfected with an autonomously replicating bicistronic HCV subgenomic RNA replicon (Lohmann et al., 1999, Science, 285, 110-113). Inhibition of HCV RNA replication was monitored through analysis of reporter luciferase activity. Briefly, HCV replicon cells were incubated with inhibitors for 72 hours at 37° C. After the incubation, duplicate plates were treated and incubated in parallel for assessment of cellular toxicity by XTT staining and anti-HCV activity by measurement of luciferase reporter activity. Either human interferon alpha 2B or ribavirin was used as a reference compound. EC50 values were determined using GraFit (Erithaus software) or Excel.
Table 2 presents EC50 data obtained using this HCV replicaon assay to test representative compounds. Data are presented as follows: “+++” means <0.1 μM; “++” means ≥0.1 μM and <1.0 μM; “+” means ≥1.0 μM.

Row | Structure (SMILES) | pIC50 [1] | pEC50 [2] | IC50 ([1]; IC50 (μM)) [µM]
1 | CNC(=O)c1c(-c2ccc(F)cc2)oc2cc(N(CCOCCOCc3ccc(F)c(C(=O)O)c3)S(C)(=O)=O)c(C3CC3)cc12 [Compound 17A-8A, 5-[2-(2-{[5-Cyclopropyl-2-(4-fluoro-phenyl)-3-methylcarbamoyl-benzofuran-6-yl]-methanesulfonyl-amino}-ethoxy)-ethoxymethyl]-2-fluoro-benzoic Acid] | 6.00 to 7.00 | > 7.00 | –
2 | CNC(=O)c1c(-c2ccc(F)cc2)oc2cc(N(CCOCCOCc3ccc(OC)c(C(=O)O)c3)S(C)(=O)=O)c(C3CC3)cc12 [Compound 17B-8, 5-[2-(2-{[5-Cyclopropyl-2-(4-fluoro-phenyl)-3-methylcarbamoyl-benzofuran-6-yl]-methanesulfonyl-amino}-ethoxy)-ethoxymethyl]-2-methoxy-benzoic Acid] | 6.00 to 7.00 | 6.00 to 7.00 | –
3 | CNC(=O)c1c(-c2ccc(F)cc2)oc2cc(N(CCOCCCc3cccc(C(=O)/C=C(\O)C(=O)O)c3)S(C)(=O)=O)c(C3CC3)cc12 [Compound 22-12, 4-(3-(3-(2-(N-(5-cyclopropyl-2-(4-fluorophenyl)-3-(methylcarbamoyl)benzofuran-6-yl)methylsulfonamido)-ethoxy)-propyl)-phenyl)-2-hydroxy-4-oxobut-2-enoic Acid] | < 6.00 | > 7.00 | –
4 | CNC(=O)c1c(-c2ccc(F)cc2)oc2cc(N(CCOCCOCCOCC(=O)O)S(C)(=O)=O)c(C3CC3)cc12 [Compound 23-6A, {2-[2-(2-{[5-Cyclopropyl-2-(4-fluoro-phenyl)-3-methylcarbamoyl-benzofuran-6-yl]-methanesulfonyl-amino}-ethoxy)-ethoxy]-ethoxy}-acetic Acid] | 6.00 to 7.00 | 6.00 to 7.00 | –
5 | CNC(=O)c1c(-c2ccc(F)cc2)oc2cc(N(CCOCCOCCOC(C)C(=O)O)S(C)(=O)=O)c(C3CC3)cc12 (centres unmarked) [Compound 23-6B, 2-{2-[2-(2-{[5-Cyclopropyl-2-(4-fluoro-phenyl)-3-methylcarbamoyl-benzofuran-6-yl]-methanesulfonyl-amino}-ethoxy)-ethoxy]-ethoxy}-propionic Acid] | 6.00 to 7.00 | > 7.00 | –
6 | CNC(=O)c1c(-c2ccc(F)cc2)oc2cc(N(CCOCCOCCOCC(=O)NO)S(C)(=O)=O)c(C3CC3)cc12 [Compound 23-6C, 5-Cyclopropyl-2-(4-fluoro-phenyl)-6-({2-[2-(2-hydroxycarbamoylmethoxy-ethoxy)-ethoxy]-ethyl}-methanesulfonyl-amino)-benzofuran-3-carboxylic Acid Methylamide] | – | > 7.00 | 0.1 to 1
7 | CNC(=O)c1c(-c2ccc(F)cc2)oc2cc(N(CCOCCOCCOC(C(=O)O)c3ccccc3)S(C)(=O)=O)c(C3CC3)cc12 (centres unmarked) [Compound 25-5, {2-[2-(2-{[5-Cyclopropyl-2-(4-fluoro-phenyl)-3-methylcarbamoyl-benzofuran-6-yl]-methanesulfonyl-amino}-ethoxy)-ethoxy]-ethoxy}-phenyl-acetic Acid] | 6.00 to 7.00 | 6.00 to 7.00 | –
